Test results as given in patent publication US20240166690A1, “MULTI-TARGET CY[…] FOR OPIOID/NEUROPEPTIDE FF RECEPTORS, AND PREPARATION THEREFOR AND APPLICATION THEREOF” (SHANGHAI TIANCI LIFE SCIENCE DEVELOPMENT CO., LTD., priority 2021, published 2024).
Bridge positions count the residues as written; N and C are the ends. Square brackets hold non-standard residues; d marks the D form. Peptide text beside a SMILES is read from it. NMeF = CN[C@@H](Cc1ccccc1)C(=O)O; Cha = N[C@@H](CC1CCCCC1)C(=O)O; dDap = NC[C@@H](N)C(=O)O; Aib = CC(C)(N)C(=O)O; βAla = NCCC(=O)O

What was measured:
Kappa-opioid receptor = target: T1, Kappa-opioid receptor (Homo sapiens, UniProt P41145); assay: cAMP functional experiment, Kappa-opioid receptor (forskolin-induced cAMP accumulation); type: cell-based
T1 construct: expressed in transfected cells; host or cells: HEK293
T1 sequence (P41145 whole entry): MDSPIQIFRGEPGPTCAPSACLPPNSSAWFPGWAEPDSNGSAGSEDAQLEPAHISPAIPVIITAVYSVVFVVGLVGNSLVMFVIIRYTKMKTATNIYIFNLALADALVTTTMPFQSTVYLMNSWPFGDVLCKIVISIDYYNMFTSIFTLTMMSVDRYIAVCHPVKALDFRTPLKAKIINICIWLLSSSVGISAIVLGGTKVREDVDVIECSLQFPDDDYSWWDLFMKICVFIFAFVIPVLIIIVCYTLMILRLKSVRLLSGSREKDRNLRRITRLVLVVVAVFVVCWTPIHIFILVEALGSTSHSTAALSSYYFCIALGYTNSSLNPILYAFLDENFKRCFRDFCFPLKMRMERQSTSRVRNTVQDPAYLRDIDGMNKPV
Protocol: (§1) The agonistic activity of the cyclopeptide molecule of the present invention against Mu-opioid receptor, Delta-opioid receptor, Kappa-opioid receptor, NPFF1 receptor and NPFF2 receptor was evaluated by detecting the regulation of the cyclopeptide molecule of the present invention on the intracellular accumulation of cyclic adenosine monophosphate (cAMP) induced by Forskolin in HEK293 cells stably expressing these five receptors. The experimental method was: the cells were seeded in 24 well plates with 120000 cells per well, and were cultured for more than 20 hours. At the beginning of the experiment, the culture medium in the culture dish was suck out, and then 500 μL of preheated serum-free medium containing 1 mM of IBMX was added, the mixture was incubated at 37° C. for 10 minutes. Then each 10 μL of the drug to be tested and 10 μM of forskolin (final concentration) were added to each well. The mixture was incubated at 37° C. for 30 minutes. After incubation, all the liquid was suck out from the culture dish, 500 μL of 0.2 N hydrochloric acid was added to each well, the mixture was incubated at room temperature for 30 minutes to promote cell lysis. After lysis was complete, NaOH was added to neutralize the hydrochloric acid solution used for lysis. Then all the liquid was suck out from the culture dish into centrifuge tubes, the liquid was centrifuged at 12000 rpm for 2 minutes. 50 μL was taken to a clean centrifuge tube, 100 μL of 60 μg/μL PKA was added, and 100 μL of TE cAMP buffer was added to the blank control group (B). Another 50 μL of 0.5 μ Ci[^3H]cAMP was added to each of the above centrifuge tubes, the mixture was quickly mixed and incubated at 4° C. for more than 2 hours. After incubation, another 100 μL of activated carbon suspension was added to each tube, the mixture was vortex agitated evenly, placed in an ice bath for 1 minute, centrifuged at 5000 rpm for 4 minutes. 200 μL of supernatant after centrifugation in each tube was suck out to a 24 well plate, with an additional 700 μL of scintillator liquid added per well, then the 24 well plate was sealed with adhesive film, placed for 3 hours, then placed on the scintillation instrument for measurement.
(§2) The inhibitory effect of cAMP was represented by the percentage (% control) of drug inhibition of intracellular cAMP accumulation induced by Forskolin, wherein % control=(cAMP content when treated with Forskolin−cAMP content when Forskolin co-treated with the test drug)/(cAMP content when treated with Forskolin−cAMP content when treated with solvent). The related % control data was represented by mean±S.E.M. The dose-effect relationship of the drug was statistically analyzed using a nonlinear regression model, and the IC50 values of the multi-target cyclopeptide molecule on inhibition of Forskolin induced intracellular cAMP accumulation were calculated using the statistical software GraphPad Prism version 5.0.

Delta-opioid receptor = target: T2, Delta-opioid receptor (Homo sapiens, UniProt P41143); assay: cAMP functional experiment, Delta-opioid receptor (forskolin-induced cAMP accumulation); type: cell-based
T2 construct: expressed in transfected cells; host or cells: HEK293
T2 sequence (P41143 whole entry): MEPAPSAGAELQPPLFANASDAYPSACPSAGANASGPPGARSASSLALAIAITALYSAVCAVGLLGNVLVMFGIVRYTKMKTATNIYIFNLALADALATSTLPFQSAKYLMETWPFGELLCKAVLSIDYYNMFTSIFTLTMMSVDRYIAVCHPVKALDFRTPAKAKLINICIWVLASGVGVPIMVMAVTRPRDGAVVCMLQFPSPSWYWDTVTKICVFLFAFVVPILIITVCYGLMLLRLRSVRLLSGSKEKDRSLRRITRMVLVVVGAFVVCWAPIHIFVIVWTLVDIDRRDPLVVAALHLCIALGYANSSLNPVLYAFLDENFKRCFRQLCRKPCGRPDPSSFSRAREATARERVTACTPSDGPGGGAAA
Protocol: as §1, §2

NPFF1 receptor = target: T3, NPFF1 receptor (Homo sapiens, UniProt Q9GZQ6); assay: cAMP functional experiment, NPFF1 receptor (forskolin-induced cAMP accumulation); type: cell-based
T3 construct: expressed in transfected cells; host or cells: HEK293
T3 sequence (Q9GZQ6 whole entry): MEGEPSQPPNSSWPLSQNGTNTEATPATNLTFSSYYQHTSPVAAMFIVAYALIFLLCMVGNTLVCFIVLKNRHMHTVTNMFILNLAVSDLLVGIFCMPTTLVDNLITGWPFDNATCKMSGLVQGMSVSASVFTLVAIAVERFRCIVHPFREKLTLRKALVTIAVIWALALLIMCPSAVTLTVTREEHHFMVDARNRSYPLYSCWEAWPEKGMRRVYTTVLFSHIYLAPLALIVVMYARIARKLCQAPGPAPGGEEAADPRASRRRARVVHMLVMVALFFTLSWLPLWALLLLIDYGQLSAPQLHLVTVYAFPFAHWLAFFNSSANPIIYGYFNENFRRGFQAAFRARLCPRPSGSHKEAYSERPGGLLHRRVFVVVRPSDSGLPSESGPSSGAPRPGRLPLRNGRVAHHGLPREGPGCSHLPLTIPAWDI
Protocol: as §1, §2

Kunming male mice [1] = assay: Photothermal tail flick experiment, subcutaneous injection; type: in vivo; settings: photothermal tail flick
Protocol: (§3) Two administration methods were used: peripheral subcutaneous administration and oral administration. Subsequently, the analgesic activity of the drug was studied using an acute pain model of photothermal tail flick in mice.
Subcutaneous administration on the back was chosen for subcutaneous administration (s.c.). A sterile 1 mL syringe was used and the drug with the volume of 0.1 mL/10 g was injected for administration. The back skin was grasped with the right hand, the needle was tilted in, and the drug was injected subcutaneously into the mouse's back. After the needle was inserted, shook it left and right, and observe to confirm that the needle had indeed entered the subcutaneous area to prevent the needle from puncturing the skin and leaking the drug.
(§4) The photothermal tail flick experiment is based on the experimental method summarized by D'Amour and Smith to optimize the experimental parameters. The experiment selected Kunming male mice with body weigh 21±2 g, and ambient temperature controlled at 22±2° C. The experimental mice were allowed to drink water freely and were moved from the breeding room to the experimental area for adaptation for 30 minutes before starting the experiment. Then the mice were grab with the right hand and the tail hang freely. Then the mice's tail were placed on a radiation light source, 2-3 mm away from the mice tail. The intensity of radiation heat was adjusted to the tail flick time of mice being 3-5 s, which is the basic pain threshold of photothermal tail flick. The irradiation time of the mice tail should not exceed 10 s to prevent scalding of the mice tail, which was the maximum latency for photothermal tail flick. After administration, time points of 10, 20, 30, 45, 60, 90, 120, 180, 240, 300, 360, and 420 minutes were selected to measure the tail flick latency of mice after administration.
(§5) The analgesic effect of drugs was generally evaluated using the maximum analgesic effect MPE (%), MPE (%)=100×[(pain threshold after administration−basic pain threshold)/(10 seconds−basic pain threshold)]. 50% effective dose (ED50) refers to the corresponding drug dose that causes a 50% effect. ED50 and 95% confidence interval were calculated using MPE (%) and the drug concentration that achieves the maximum analgesic effect MPE (%) by the statistical software GraphPad Prism 5.0. The difference in analgesic effects was statistically analyzed using one-way ANOVA (Dunnett test), *P<0.05, **P<0.01, and ***P<0.001 indicated significance of the difference between the group with only drug injected and the saline group.

NPFF2 receptor = target: T4, NPFF2 receptor (Homo sapiens, UniProt Q9Y5X5); assay: cAMP functional experiment, NPFF2 receptor (forskolin-induced cAMP accumulation); type: cell-based
T4 construct: expressed in transfected cells; host or cells: HEK293
T4 sequence (Q9Y5X5 whole entry): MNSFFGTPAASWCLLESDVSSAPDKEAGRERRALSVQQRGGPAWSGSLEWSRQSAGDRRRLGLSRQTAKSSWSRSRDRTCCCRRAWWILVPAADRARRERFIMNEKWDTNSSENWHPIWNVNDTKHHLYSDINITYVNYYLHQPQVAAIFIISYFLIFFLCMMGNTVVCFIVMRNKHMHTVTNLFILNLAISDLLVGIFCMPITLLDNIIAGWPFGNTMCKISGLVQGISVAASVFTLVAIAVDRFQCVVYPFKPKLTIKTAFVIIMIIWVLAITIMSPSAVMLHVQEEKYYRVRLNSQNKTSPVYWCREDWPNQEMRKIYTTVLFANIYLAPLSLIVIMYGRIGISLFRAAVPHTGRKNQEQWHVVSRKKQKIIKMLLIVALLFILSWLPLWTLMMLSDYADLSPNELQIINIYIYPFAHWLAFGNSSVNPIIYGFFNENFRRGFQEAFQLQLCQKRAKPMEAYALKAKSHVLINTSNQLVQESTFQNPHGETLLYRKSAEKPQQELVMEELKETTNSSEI
Protocol: as §1, §2

Kunming male mice [2] = assay: Photothermal tail flick experiment, oral administration; type: in vivo; settings: tail flick
Protocol: as §3
1 mL sterile syringe was used for oral administration (p.o.), the pinhead was replaced with a mouse gastric lavage needle, and […] of the drug was orally administered. The skin on the neck and back of the mouse was grasped with the left hand with the abdomen facing upwards. Noted that the mouse's entire body was fixed to vertical, which was beneficial for oral gavage. A gastric lavage needle (No. 12 needle and 1 mL syringe) was held in the right hand and was inserted to the esophagus along the upper jaw which is pressed the tongue tightly from the corner of the mouse's mouth. Gastric lavage fluid can be injected when the needle inserted 2.5 cm. The inserting length of the needle should be determined through practice in advance, as there is a sense of falling into a hole after the needle is inserted. If the injection position was appropriate, it should be very smooth. […] This can cause immediate death of the mouse after gavage.
as §4, §5

Mu-opioid receptor = target: T5, Mu-opioid receptor (Homo sapiens, UniProt P35372); assay: cAMP functional experiment, Mu-opioid receptor (forskolin-induced cAMP accumulation); type: cell-based
T5 construct: expressed in transfected cells; host or cells: HEK293
T5 sequence (P35372 whole entry): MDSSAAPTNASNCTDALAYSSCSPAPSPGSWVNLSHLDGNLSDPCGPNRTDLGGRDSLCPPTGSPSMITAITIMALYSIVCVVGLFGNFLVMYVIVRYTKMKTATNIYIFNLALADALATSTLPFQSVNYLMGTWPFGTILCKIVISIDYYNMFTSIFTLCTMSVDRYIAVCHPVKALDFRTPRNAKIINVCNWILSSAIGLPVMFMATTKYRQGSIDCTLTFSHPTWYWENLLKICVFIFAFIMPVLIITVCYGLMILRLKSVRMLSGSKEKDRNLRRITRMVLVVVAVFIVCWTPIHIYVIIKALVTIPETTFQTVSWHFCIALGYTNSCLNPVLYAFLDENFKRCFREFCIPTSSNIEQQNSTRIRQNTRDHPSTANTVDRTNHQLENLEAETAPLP
Protocol: as §1, §2

[3] = morphine, reference method; cited from earlier work

Compound: CN1C(=O)CNC(=O)[C@H](NC(=O)[C@@H](N)Cc2ccc(O)cc2)CCC(=O)NCCCC[C@@H](C(=O)N2CCC[C@H]2C(=O)N[C@@H](CCC(N)=O)C(=O)N[C@@H](CCCNC(=N)N)C(=O)N[C@@H](Cc2ccccc2)C(N)=O)NC(=O)[C@@H]1Cc1ccccc1 [Compound 7, Tyr-c^[2,5][D-Glu-Gly-NMe-Phe-Lys]-Pro-Gln-Arg-Phe-NH2] (H-Y[dE]G[NMeF]KPQRF-NH2; lactam 2-5)
- melting point: 182 to 184 °C

Compound: CN1C(=O)CNC(=O)[C@H](NC(=O)[C@@H](N)Cc2ccc(O)cc2)CNC(=O)C[C@@H](C(=O)N2CCC[C@H]2C(=O)N[C@@H](CCC(N)=O)C(=O)N[C@@H](CCCNC(=N)N)C(=O)N[C@@H](Cc2ccccc2)C(N)=O)NC(=O)[C@@H]1Cc1ccccc1 [Compound 10, Tyr-c^[2,5][D-Dap-Gly-NMe-Phe-Asp]-Pro-Gln-Arg-Phe-NH2] (H-Y[dDap]G[NMeF]DPQRF-NH2; lactam 2-5)
- IC50 (Kappa-opioid receptor): 136 nM
- IC50 (Delta-opioid receptor): 374 nM
- IC50 (NPFF1 receptor): 90.1 nM
- ED50 value (95% confidence interval), analgesic activity (Kunming male mice [1]): 15.0 (13.6 to 16.5) μg/kg
- IC50 (NPFF2 receptor): 349 nM
- Maximum analgesic time (Kunming male mice [2]; oral administration at the maximum analgesic dose): 30 min
- analgesic duration (Kunming male mice [2]; oral administration): 240 min
- IC50 (Mu-opioid receptor): 238 nM

Compound: CN1C(=O)CNC(=O)[C@H](NC(=O)[C@@H](N)Cc2ccc(O)cc2)CCCCNC(=O)C[C@@H](C(=O)N2CCC[C@H]2C(=O)NCCC(=O)N[C@@H](CCCNC(=N)N)C(=O)N[C@@H](CC2CCCCC2)C(N)=O)NC(=O)[C@@H]1Cc1ccccc1 [Compound 13, Tyr-c[D-Lys-Gly-NMe-Phe-Asp]-Pro-β-Ala-Arg-Cha-NH2] (H-Y[dK]G[NMeF]DP[βAla]R[Cha]-NH2; lactam 2-5)
- melting point: 175 to 177 °C

Compound: CN1C(=O)CNC(=O)[C@H](NC(=O)[C@@H](N)Cc2ccc(O)cc2)CCCCNC(=O)C[C@@H](C(=O)N2CCC[C@H]2C(=O)NC(C)(C)C(=O)N[C@@H](CCCNC(=N)N)C(=O)N[C@@H](CC2CCCCC2)C(N)=O)NC(=O)[C@@H]1Cc1ccccc1 [Compound 14, Tyr-c^[2,5][D-Lys-Gly-NMe-Phe-Asp]-Pro-Aib-Arg-Cha-NH2] (H-Y[dK]G[NMeF]DP[Aib]R[Cha]-NH2; lactam 2-5)
- melting point: 196 to 198 °C

Compound: CN1CC[C@]23c4c5ccc(O)c4O[C@H]2[C@@H](O)C=C[C@H]3[C@H]1C5 [morphine]
- analgesic ED50 [3]: 1.68 mg/kg
